Assay: Stability study on storage (polymorphic conversion followed by XRD)
Type: physicochemical
Method: A first aspect of the present invention provides stable polymorphic Form I of ritonavir having no tendency to convert to any other polymorphic form. […] The X-Ray powdered Diffraction (XRPD) pattern of stable Form I of ritonavir is provided in FIGS. 1a and 2a of the drawing.
(XRD pattern of the title compound stored at 25° C. after 3 months is depicted in FIG. 3).

| SMILES | conversion in the polymorphic form on storage (stored at 25° C. for 3 months, XRD pattern (FIG. 3)) | stability of polymorphic form upon storage (prepared as per prior art process, tendency to convert to other forms, especially Form II) |
| --- | --- | --- |
| CC(C)c1nc(CN(C)C(=O)N[C@H](C(=O)N[C@@H](Cc2ccccc2)C[C@H](O)[C@H](Cc2ccccc2)NC(=O)OCc2cncs2)C(C)C)cs1 (relative stereo) [Example 2, [5S-(5R*,8R*,10R*,11R*)]-10-Hydroxy-2-methyl-5-(1-methylethyl)-1-[2-(1-methylethyl)-4-thiazolyl]-3,6-dioxo-8,11-bis(phenylmethyl)-2,4,7,12-tetraazamidecan-13-oic acid, 5-thiazolylmethyl ester] | no conversion in the polymorphic form was observed |  |
| CC(C)c1nc(CN(C)C(=O)N[C@H](C(=O)N[C@@H](Cc2ccccc2)C[C@H](O)[C@H](Cc2ccccc2)NC(=O)OCc2cncs2)C(C)C)cs1 (single isomer, unassigned) [Form I of ritonavir, [5S-(5R*,8R*,10R*,11R*)]-10-Hydroxy-2-methyl-5-(1-methylethyl)-1-[2-(1-methylethyl)-4-thiazolyl]-3,6-dioxo-8,11-bis(phenylmethyl)-2,4,7,12-tetraazamidecan-13-oic acid, 5-thiazolylmethyl ester] |  | not stable |
